Drawing on PMC7674269 (Biochemistry, 2020), this text covers Kd and IC50 for 4 molecules.

The target in one test is T1, sortilin (Homo sapiens, UniProt Q99523).
T1 sequence (Q99523 78-755): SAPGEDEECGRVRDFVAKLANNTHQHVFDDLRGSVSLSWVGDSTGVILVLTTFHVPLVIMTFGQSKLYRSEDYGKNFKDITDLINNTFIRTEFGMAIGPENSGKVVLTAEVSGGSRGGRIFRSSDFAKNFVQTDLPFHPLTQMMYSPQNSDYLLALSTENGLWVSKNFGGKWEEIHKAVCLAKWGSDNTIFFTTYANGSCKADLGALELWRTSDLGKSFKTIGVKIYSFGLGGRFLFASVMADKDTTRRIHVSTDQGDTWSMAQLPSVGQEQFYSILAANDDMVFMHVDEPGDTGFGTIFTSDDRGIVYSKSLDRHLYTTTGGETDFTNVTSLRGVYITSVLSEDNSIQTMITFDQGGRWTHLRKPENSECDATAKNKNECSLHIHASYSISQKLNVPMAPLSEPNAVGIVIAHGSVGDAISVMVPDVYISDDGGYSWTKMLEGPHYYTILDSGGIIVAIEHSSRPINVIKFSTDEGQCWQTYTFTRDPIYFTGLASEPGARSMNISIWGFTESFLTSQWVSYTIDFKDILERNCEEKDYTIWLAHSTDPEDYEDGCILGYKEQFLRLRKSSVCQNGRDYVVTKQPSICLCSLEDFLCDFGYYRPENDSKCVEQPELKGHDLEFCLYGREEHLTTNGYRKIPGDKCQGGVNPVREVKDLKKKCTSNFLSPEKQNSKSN
Kind of test: SPR, immobilised sortilin, CM5 chip. The test is classed as binding. A general note: SPR reads the build-up and loss of mass on a sensor chip optically.

Test [1] deals with T2, Neurotensin C-terminal fragment (Ct-NT) C-terminal 4 residues (Homo sapiens, UniProt P30990).
T2 chain: PYIL
Kind of test: SPR competition with PIP3 nanodiscs.

Test [2] concerns the target T2, Neurotensin C-terminal fragment (Ct-NT) …. The test can be described thus: SPR.

What is called Kd is a measure of binding affinity in units of concentration. Low readings indicate tighter binding, high ones weaker binding. Turning to `C[C@@H](NC(=O)c1ccccc1NCC(=O)O)c1ccccc1` [cpd541], on sortilin, binding was characterised by a dissociation constant (Kd) of 6.9 ± 1.1 µM.
With `CCCCCCCC(=O)OC[C@H](COP(=O)(O)O[C@H]1[C@H](O)[C@@H](OP(=O)(O)O)[C@H](OP(=O)(O)O)[C@@H](OP(=O)(O)O)[C@H]1O)OC(=O)CCCCCCC` [diC8-PIP3], binding at sortilin was characterised by a dissociation constant (Kd) of 4.2 ± 0.4 µM.
`CN1CCC[C@H]1C(=O)Nc1cccc(NC(=O)CCc2ccccc2)c1` [cpd984, (2S)-1-methylN-3-[(3-phenypropanoyl)-amino]phenylpyrrolidine-2-carboxamied] registered a dissociation constant Kd at sortilin of 0.118 ± 0.038 µM. This Kd is about 36-fold lower than that of the molecule before.

B1: Sortilin luminal beta-propeller domain (protein)
chain: NNTHQHVFDDLRGSVSLSWVGDSTGVILVLTTFHVPLVIMTFGQSKLYRSEDYGKNFKDITDLINNTFIRTEFGMAIGPENSGKVVLTAEVSGGSRGGRIFRSSDFAKNFVQTDLPFHPLTQMMYSPQNSDYLLALSTENGLWVSKNFGGKWEEIHKAVCLAKWGSDNTIFFTTYANGSCKADLGALELWRTSDLGKSFKTIGVKIYSFGLGGRFLFASVMADKDTTRRIHVSTDQGDTWSMAQLPSVGQEQFYSILAANDDMVFMHVDEPGDTGFGTIFTSDDRGIVYSKSLDRHLYTTTGGETDFTNVTSLRGVYITSVLSEDNSIQTMITFDQGGRWTHLRKPENSECDATAKNKNECSLHIHASYSISQKLNVPMAPLSEPNAVGIVIAHGSVGDAISVMVPDVYISDDGGYSWTKMLEGPHYYTILDSGGIIVAIEHSSRPINVIKFSTDEGQCWQTYTFTRDPIYFTGLASEPGARSMNISIWGFTESFLTSQWVSYTIDF
In general, IC50 refers to the midpoint of a concentration-inhibition curve. A lower IC50 goes with greater potency. In the case of B1, the half-inhibitory concentration (IC50) in test [1] was determined as 157 nM. The Kd in test [2] was ~120 nM.
